From patent US20240246916A1, “7-NITRO-8-HYDROXYQUINOLINE DERIVATIVES, PREPARATION METHOD THEREFORE AND MEDICAL USE THEREOF” (Jiangsu Yahong Meditech Co., Ltd., priority 2021, published 2024) come the findings set out here.

≈ marks a conversion by molar mass, not a printed value. Where only a bound is given, the exact number is not on record here.

Common to all, as to type: cell-based
For test [1], the system named is Bladder cancer cell line UM-UC-3. Kind of test: Inhibitory activity on cancer cells, CellTiter-Glo viability, UM-UC-3. The conditions noted are these: Homo sapiens, UMUC3, 72 hours treatment. On the procedure:
(§1) HUVEC (purchased from Allcells Biological Technology (Shanghai) Co., Ltd.); UM-UC-3 (ATCC); LNCaP (ATCC); RM-1 (purchased from Nanjing Cobioer Biosciences Co., Ltd.) (1) On the first day, the cells were seeded in a 96-well plate, and the previous medium was poured off. 5 mL of DPBS was added to wash the cells, and then removed by a pipette and discarded. Then, 1 mL of trypsin (0.25%) was added, and the plate was placed in a cell culture incubator at 37 °C, 5% CO2 for digestion, and taken out after about 2 to 5 minutes. New corresponding medium was added, and pipetted to resuspend the cells evenly, and the cells were then counted with an automated cell counter. Regarding HUVEC, the medium used was endothelial cell complete medium; regarding UM-UC-3, the medium used was 89 v % EMEM+10 v % fetal bovine serum+1 v % penicillin-streptomycin double anti-body; regarding LNcaP, the medium used was 89 v % RPM11640+10 v % fetal bovine serum+1 v % penicillin-streptomycin double anti-body; and regarding RM1, the medium used was 89 v % DMEM+10 v % fetal bovine serum+1 v % penicillin-streptomycin double anti-body. (2) HUVEC cells were seeded in columns 1 to 11 of a 96-well plate (Corning, Cat. No. 3610) at a density of 2000 cells per well in 100 μL of medium, and the medium free of cell was added to the wells of column 12. The other three types of cells were also seeded, wherein UM-UC-3 and RM-1 cells were seeded at a density of 3000 cells per well, and LNCap cells were seeded at a density of 5000 cells per well. Then, the plate was placed in an incubator at 37° C., 5% CO2 for 24 hours. (3) On the second day, the compounds of the present invention and the reference drug nitroxoline (obtained according to the preparation method disclosed in the prior art) were diluted in gradient (2.5 folds, started at 100 μmol) to obtain 8 dose points (there were a total of 8 columns of wells; the first column of wells had the highest concentration, the concentration decreased in turn, and the last column of wells had the lowest concentration). 10 μL of the compound diluted in gradient was added to the 100 μL of cells in column 1 to column 10 with an 8-channel pipette. 10 μL of the corresponding medium containing 0.33 v % DMSO was added to column 11 and column 12. The plate was incubated in an incubator at 37° C., 5% CO2 for 72 hours (note: column 11 was used as MAX well with cells and no compounds; and column 12 was used as MIN well with no cells and no compounds). (4) After treating with the compounds of the present invention for 72 hours, the cell viability detection reagents in the above CellTiter-Glo® assay kit were added to the 96-well plate at 50 μL per well according to the instructions. The plate was shaken on a shaker in the dark for 5 to 10 minutes, and then the cell activity was determined by a multifunctional microplate reader. Finally, the growth inhibition of the compounds of the present invention on the cells was plotted by XLFIT 5.3 software, and the IC50 values of the compounds of the present invention were calculated.
For orientation: Cellular ATP, detected with luciferase, serves as a proxy for viable cell number.

The test system of test [2] is Prostate cancer cell line LNcaP. The test can be described thus: Inhibitory activity on cancer cells, CellTiter-Glo viability, LNcaP. The conditions noted are these: Homo sapiens, 72 hours treatment. The method, then:
as §1

In test [3] the test system is Staphylococcus aureus (methicillin-resistant and sensitive clinical isolates; ATCC29213). The test can be described thus: MIC by micro broth dilution (CLSI), Staphylococcus aureus. As to conditions: for MIC50 / MIC90: Clinical strain; for MIC50: read-out: MIC50; for MIC90: read-out: MIC90; for MIC: Standard strain ATCC29213, read-out: MIC. A digest of the protocol: (§2)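 In cation-adjusted Mueller-Hinton broth, 10^5 CFU/mL of bacteria met compound concentrations of 128 to 0.06 mg/L. Plates sat in air at 35±2° C for 20 hours.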
For orientation: Dilution methods test growth across graded concentrations, often in twofold steps.

Test [4] deals with Acinetobacter baumannii (carbapenem-resistant clinical isolates; ATCC19606). Kind of test: MIC by micro broth dilution (CLSI), Acinetobacter baumannii. The conditions noted are these: Acinetobacter baumannii; for MIC50 / MIC90: ATCC19606, Clinical strain; for MIC50: read-out: MIC50; for MIC90: read-out: MIC90; for MIC: Standard strain ATCC19606, read-out: MIC. In short, it runs like this:
as §2

Test [5] concerns Escherichia coli (carbapenem-resistant clinical isolate; ATCC25922). The test can be described thus: MIC by micro broth dilution (CLSI), Escherichia coli. The conditions noted are these: Escherichia coli; for MIC50 / MIC90: ATCC25922, Clinical strain; for MIC50: read-out: MIC50; for MIC90: read-out: MIC90; for MIC: Standard strain ATCC25922, read-out: MIC. A digest of the protocol: as §2

In test [6] the test system is Endothelial cell line HUVEC. The test can be described thus: Inhibitory activity on cells, CellTiter-Glo viability, HUVEC. As to conditions: Homo sapiens, 72 hours treatment. The method, then:
as §1

In test [7] the test system is Mouse prostate cancer cell line RM1. Kind of test: Inhibitory activity on cancer cells, CellTiter-Glo viability, RM1. As to conditions: 72 hours treatment. The method, then:
as §1

The term IC50 denotes the point on the concentration scale where inhibition reaches its midpoint. What is called MIC50 is an inhibitory concentration at the 50% level, which refers to growth in some studies and to a panel of isolates in others. Usually MIC90 stands for the lowest concentration that inhibits either 90% of growth or 90% of the strains tested, depending on the study. The term MIC denotes the lowest concentration found to suppress growth. With `O=[N+]([O-])c1ccc2c(Br)ccnc2c1O` [Example 16, 4-Bromo-7-nitroquinolin-8-ol], the IC50 worked out at 8.9 µM in test [1], 3.9 µM in test [2] and 8.1 µM in test [6]. Besides, the MIC50 in test [3] is 8 µg/mL (≈ 29.7 µM); in test [4], 8 µg/mL (≈ 29.7 µM); in test [5] it was 16 µg/mL (≈ 59.5 µM). Moreover, the MIC90 in test [3] was found to be 8 µg/mL (≈ 29.7 µM); in test [4], 8 µg/mL (≈ 29.7 µM); in test [5] it was 16 µg/mL (≈ 59.5 µM). Also, the results for the MIC in test [3], in test [4] and in test [5] were 8 µg/mL (≈ 29.7 µM), 32 µg/mL (≈ 119 µM) and 32 µg/mL (≈ 119 µM), respectively.
Take `CN(C)c1ccnc2c(O)c([N+](=O)[O-])ccc12` [Example 17, 4-(Dimethylamino)-7-nitroquinolin-8-ol]: the IC50 worked out at 16.9 µM in test [1], 23.6 µM in test [2] and 27.4 µM in test [6]. The MIC50 was 128 µg/mL (≈ 549 µM) in test [3], 128 µg/mL (≈ 549 µM) in test [4] and 64 µg/mL (≈ 274 µM) in test [5]. The results for the MIC90 in test [3], in test [4] and in test [5] were 128 µg/mL (≈ 549 µM), 128 µg/mL (≈ 549 µM) and 64 µg/mL (≈ 274 µM), respectively. Further, the MIC in test [3], in test [4] and in test [5] was 128 µg/mL (≈ 549 µM) throughout.
Regarding `CN1CCN(c2ccnc3c(O)c([N+](=O)[O-])ccc23)CC1` [Example 18, 4-(4-Methylpiperazinyl)-7-nitroquinolin-8-ol], the IC50 came out at 13.2 µM in test [1], 21.2 µM in test [2] and 64.4 µM in test [6]. For the same compound, the MIC50 in test [3], in test [4] and in test [5] was 128 µg/mL (≈ 444 µM) in each case. For the same compound, the MIC90 in test [3], in test [4] and in test [5] was 128 µg/mL (≈ 444 µM) in each case. The MIC in test [3], in test [4] and in test [5] was 128 µg/mL (≈ 444 µM) each time.
In the case of `CC1CCCCN1c1ccnc2c(O)c([N+](=O)[O-])ccc12` (stereo not drawn) [Example 20, 4-(2-Methylpiperidinyl)-7-nitroquinolin-8-ol], the 50% inhibitory concentration (IC50) is 4.38 µM in test [1], 3.33 µM in test [2], 6.8 µM in test [7] and 5.6 µM in test [6].
Turning to `COc1ccnc2c(O)c([N+](=O)[O-])ccc12` [Example 21, 4-Methoxy-7-nitroquinolin-8-ol], the IC50 in test [1] is 4.84 µM; in test [2], 6.75 µM; in test [7] it was 6.8 µM; in test [6], 10.3 µM. The MIC50 in test [3] stood at 4 µg/mL (≈ 18.2 µM); in test [4], 32 µg/mL (≈ 145 µM); in test [5], 8 µg/mL (≈ 36.3 µM). Besides, the MIC90 in test [3] came out at 8 µg/mL (≈ 36.3 µM); in test [4] it was 64 µg/mL (≈ 291 µM); in test [5] it was 32 µg/mL (≈ 145 µM). The MIC was 8 µg/mL (≈ 36.3 µM) in test [3], 32 µg/mL (≈ 145 µM) in test [4] and 8 µg/mL (≈ 36.3 µM) in test [5].
With `O=[N+]([O-])c1ccc2c(-c3ccccc3)ccnc2c1O` [Example 22, 4-Phenyl-7-nitroquinolin-8-ol], the IC50 in test [1] was 1.99 µM; in test [2], 2.31 µM; in test [7] it was 2.3 µM; in test [6], 1.46 µM. Further, the MIC50 in test [3] was 2 µg/mL (≈ 7.51 µM); in test [4], 128 µg/mL (≈ 481 µM); in test [5], 128 µg/mL (≈ 481 µM). Moreover, the results for the MIC90 in test [3], in test [4] and in test [5] were 32 µg/mL (≈ 120 µM), more than 128 µg/mL and 128 µg/mL (≈ 481 µM), respectively. Besides, the MIC in test [3] was 2 µg/mL (≈ 7.51 µM); in test [4], 128 µg/mL (≈ 481 µM); in test [5], more than 128 µg/mL.
Regarding `O=[N+]([O-])c1ccc2c(N3CC=CC3)ccnc2c1O` [Example 23, 4-(2,5-Dihydro-1H-pyrrolyl)-7-nitroquinolin-8-ol], the IC50 in test [1], in test [2], in test [7] and in test [6] was more than 100 µM each time.
For the compound `CN(C)CCOc1ccnc2c(O)c([N+](=O)[O-])ccc12` [Example 24, 4-(2-(Dimethylamino)ethoxy)-7-nitroquinolin-8-ol], the IC50 was 48 µM in test [1], 49.6 µM in test [2], 53.6 µM in test [7] and more than 100 µM in test [6]. Besides, the MIC50 in test [3], in test [4] and in test [5] was 128 µg/mL (≈ 462 µM) each time. For the same compound, the figures for the MIC90 in test [3], in test [4] and in test [5] were 128 µg/mL (≈ 462 µM), more than 128 µg/mL and 128 µg/mL (≈ 462 µM), respectively. Besides, the MIC in test [3], in test [4] and in test [5] was 128 µg/mL (≈ 462 µM) each time.
As to `O=[N+]([O-])c1cc(Cl)c2c(C3CC3)ccnc2c1O` [Example 49, 5-Chloro-4-cyclopropyl-7-nitroquinolin-8-ol], the IC50 was determined as 4.07 µM in test [1], 1.04 µM in test [2], 5.32 µM in test [7] and 1.59 µM in test [6].
`CCC(C)OC(=O)N1CCN(c2ccnc3c(O)c([N+](=O)[O-])cc(Cl)c23)CC1` (stereo not drawn) [Example 57, (1-Methyl)propyl 4-(5-chloro-8-hydroxy-7-nitroquinolin-4-yl)piperazine-1-carboxylate]: the IC50 in test [1] worked out at 0.49 µM; in test [2] it was 0.55 µM; in test [7] it was 2.35 µM; in test [6] it was 0.47 µM.
For `CC(C)OC(=O)N1CCN(c2ccnc3c(O)c([N+](=O)[O-])cc(Cl)c23)CC1` [Example 58, Isopropyl 4-(5-chloro-8-hydroxy-7-nitroquinolin-4-yl)piperazine-1-carboxylate] the same measures were 2.55 µM, 0.89 µM, 0.91 µM and 0.68 µM.
In the case of `O=[N+]([O-])c1cc(Cl)c2c(OC3CCCCC3)ccnc2c1O` [Example 60, 5-Chloro-4-(cyclohexyloxy)-7-nitroquinolin-8-ol], the IC50 in test [1] is 5.82 µM; in test [2], 0.64 µM; in test [7], 1.13 µM; in test [6], 0.7 µM.
For `O=[N+]([O-])c1cc(Cl)c2c(N3CCC4(CC3)CC4)ccnc2c1O` [Example 63, 5-Chloro-7-nitro-4-(6-azaspiro[2.5]octan-6-yl)quinolin-8-ol], the 50% inhibitory concentration (IC50) in test [1] worked out at 7.07 µM; in test [2] it was 2.01 µM; in test [7], 7.47 µM; in test [6], 1.82 µM.
For `O=[N+]([O-])c1cc(Cl)c2c(F)ccnc2c1O` [Example 65, 5-Chloro-4-fluoro-7-nitroquinolin-8-ol] the same measures were 11.5 µM, 13.2 µM, 21.7 µM and 9.03 µM.
Turning to `COc1c(C2CC2)cnc2c(O)c([N+](=O)[O-])ccc12` [Example 75, 3-cyclopropyl-4-methoxy-7-nitroquinolin-8-ol], the concentration for half-maximal inhibition (IC50) in test [1] turned out to be 9.27 µM; in test [2], 1.77 µM; in test [7], 2.05 µM; in test [6], 3.41 µM.
